Assay results as given in patent US9469650B2, “Melampomagnolide B derivatives” (BOARD OF TRUSTEES OF THE UNIVERSITY OF ARKANSAS, priority 2013, dated 2016).

What was measured:
CCRF-CEM = assay: panel of 60 human tumor cell lines, growth inhibition (Leukemia)
LOX IMVI = assay: panel of 60 human tumor cell lines, growth inhibition (Melanoma)
M14 = assay: as above; conditions: M14
SK-MEL-2 = assay: as above; conditions: SK-MEL-2
SF-268 = assay: panel of 60 human tumor cell lines, growth inhibition (CNS Cancer); conditions: SF-268
HT29 = assay: panel of 60 human tumor cell lines, growth inhibition (Colon Cancer); conditions: HT29
SW-620 = assay: as above; conditions: SW-620
CAKI-1 = assay: panel of 60 human tumor cell lines, growth inhibition (Renal Cancer); conditions: CAKI-1
TK-10 = assay: as above; conditions: TK-10
MCF7 = assay: panel of 60 human tumor cell lines, growth inhibition (Breast Cancer); conditions: MCF7
MDA-MB-231/ATCC = assay: as above; conditions: MDA-MB-231/ATCC
IGROV1 = assay: panel of 60 human tumor cell lines, growth inhibition (Ovarian Cancer); conditions: IGROVI
OVCAR-5 = assay: as above; conditions: OVCAR-5
OVCAR-8 = assay: as above; conditions: OVCAR-8
SK-OV-3 = assay: as above; conditions: SK-OV-3
A549/ATCC = assay: panel of 60 human tumor cell lines, growth inhibition (Non-Small Cell Lung Cancer); conditions: A549/ATCC
NCI-H23 = assay: as above; conditions: NCI-H23
NCI-H522 = assay: as above; conditions: NCI-H522

## C=C1C(=O)O[C@H]2[C@H]1CC/C(COC(=O)NCCN1CCCCC1)=C\CC[C@@]1(C)O[C@@H]21 [JVM 2-13]
CCRF-CEM
  GI50: 3.03 µM
  TGI: 12.1 µM
CCRF-CEM; Log10 Concentration −4.0
  Percent Growth: −41%
CCRF-CEM; Log10 Concentration −5.0
  Percent Growth: 4%
CCRF-CEM; Log10 Concentration −6.0
  Percent Growth: 93%
CCRF-CEM; Log10 Concentration −7.0
  Percent Growth: 109%
CCRF-CEM; Log10 Concentration −8.0
  Percent Growth: 104%
LOX IMVI
  GI50: 10.2 µM
  TGI: 23.9 µM
LOX IMVI; Log10 Concentration −4.0
  Percent Growth: −84%
LOX IMVI; Log10 Concentration −5.0
  Percent Growth: 51%
LOX IMVI; Log10 Concentration −6.0
  Percent Growth: 94%
LOX IMVI; Log10 Concentration −7.0
  Percent Growth: 99%
LOX IMVI; Log10 Concentration −8.0
  Percent Growth: 102%
M14
  GI50: 6.78 µM
M14; Log10 Concentration −4.0
  Percent Growth: −82%
M14; Log10 Concentration −5.0
  Percent Growth: 42%
M14; Log10 Concentration −6.0
  Percent Growth: 91%
M14; Log10 Concentration −7.0
  Percent Growth: 96%
M14; Log10 Concentration −8.0
  Percent Growth: 91%
SK-MEL-2
  GI50: 17 µM
  TGI: 34.4 µM
SK-MEL-2; Log10 Concentration −4.0
  Percent Growth: −76%
SK-MEL-2; Log10 Concentration −5.0
  Percent Growth: 88%
SK-MEL-2; Log10 Concentration −6.0
  Percent Growth: 113%
SK-MEL-2; Log10 Concentration −7.0
  Percent Growth: 113%
SK-MEL-2; Log10 Concentration −8.0
  Percent Growth: 103%
SF-268
  GI50: 9.67 µM
  TGI: 24.4 µM
SF-268; Log10 Concentration −4.0
  Percent Growth: −78%
SF-268; Log10 Concentration −5.0
  Percent Growth: 49%
SF-268; Log10 Concentration −6.0
  Percent Growth: 96%
SF-268; Log10 Concentration −7.0
  Percent Growth: 104%
SF-268; Log10 Concentration −8.0
  Percent Growth: 97%
HT29
  GI50: 3.76 µM
  TGI: 13 µM
HT29; Log10 Concentration −4.0
  Percent Growth: −75%
HT29; Log10 Concentration −5.0
  Percent Growth: 10%
HT29; Log10 Concentration −6.0
  Percent Growth: 104%
HT29; Log10 Concentration −7.0
  Percent Growth: 100%
HT29; Log10 Concentration −8.0
  Percent Growth: 100%
SW-620
  GI50: 2.72 µM
  TGI: 12.3 µM
SW-620; Log10 Concentration −4.0
  Percent Growth: −74%
SW-620; Log10 Concentration −5.0
  Percent Growth: 7%
SW-620; Log10 Concentration −6.0
  Percent Growth: 83%
SW-620; Log10 Concentration −7.0
  Percent Growth: 96%
SW-620; Log10 Concentration −8.0
  Percent Growth: 100%
CAKI-1
  GI50: 3.43 µM
  TGI: 15.7 µM
CAKI-1; Log10 Concentration −4.0
  Percent Growth: −98%
CAKI-1; Log10 Concentration −5.0
  Percent Growth: 24%
CAKI-1; Log10 Concentration −6.0
  Percent Growth: 80%
CAKI-1; Log10 Concentration −7.0
  Percent Growth: 92%
CAKI-1; Log10 Concentration −8.0
  Percent Growth: 89%
TK-10
  GI50: 2.88 µM
  TGI: 11.1 µM
TK-10; Log10 Concentration −4.0
  Percent Growth: −94%
TK-10; Log10 Concentration −5.0
  Percent Growth: 5%
TK-10; Log10 Concentration −6.0
  Percent Growth: 89%
TK-10; Log10 Concentration −7.0
  Percent Growth: 103%
TK-10; Log10 Concentration −8.0
  Percent Growth: 105%
MCF7
  GI50: 2.58 µM
  TGI: 11.4 µM
MCF7; Log10 Concentration −4.0
  Percent Growth: −64%
MCF7; Log10 Concentration −5.0
  Percent Growth: 4%
MCF7; Log10 Concentration −6.0
  Percent Growth: 82%
MCF7; Log10 Concentration −7.0
  Percent Growth: 91%
MCF7; Log10 Concentration −8.0
  Percent Growth: 87%
MDA-MB-231/ATCC
  GI50: 5.69 µM
  TGI: 20.8 µM
MDA-MB-231/ATCC; Log10 Concentration −4.0
  Percent Growth: −79%
MDA-MB-231/ATCC; Log10 Concentration −5.0
  Percent Growth: 37%
MDA-MB-231/ATCC; Log10 Concentration −6.0
  Percent Growth: 91%
MDA-MB-231/ATCC; Log10 Concentration −7.0
  Percent Growth: 99%
MDA-MB-231/ATCC; Log10 Concentration −8.0
  Percent Growth: 107%
IGROV1
  GI50: 5.59 µM
  TGI: 22.9 µM
IGROV1; Log10 Concentration −4.0
  Percent Growth: −58%
IGROV1; Log10 Concentration −5.0
  Percent Growth: 33%
IGROV1; Log10 Concentration −6.0
  Percent Growth: 101%
IGROV1; Log10 Concentration −7.0
  Percent Growth: 106%
IGROV1; Log10 Concentration −8.0
  Percent Growth: 105%
OVCAR-5
  GI50: 10.6 µM
  TGI: 24.2 µM
OVCAR-5; Log10 Concentration −4.0
  Percent Growth: −86%
OVCAR-5; Log10 Concentration −5.0
  Percent Growth: 53%
OVCAR-5; Log10 Concentration −6.0
  Percent Growth: 82%
OVCAR-5; Log10 Concentration −7.0
  Percent Growth: 87%
OVCAR-5; Log10 Concentration −8.0
  Percent Growth: 84%
OVCAR-8
  GI50: 5.07 µM
  TGI: 20 µM
OVCAR-8; Log10 Concentration −4.0
  Percent Growth: −75%
OVCAR-8; Log10 Concentration −5.0
  Percent Growth: 32%
OVCAR-8; Log10 Concentration −6.0
  Percent Growth: 93%
OVCAR-8; Log10 Concentration −7.0
  Percent Growth: 97%
OVCAR-8; Log10 Concentration −8.0
  Percent Growth: 100%
SK-OV-3
  GI50: 21 µM
  TGI: 45.8 µM
SK-OV-3; Log10 Concentration −4.0
  Percent Growth: −50%
SK-OV-3; Log10 Concentration −5.0
  Percent Growth: 97%
SK-OV-3; Log10 Concentration −6.0
  Percent Growth: 97%
SK-OV-3; Log10 Concentration −7.0
  Percent Growth: 103%
SK-OV-3; Log10 Concentration −8.0
  Percent Growth: 92%
A549/ATCC
  GI50: 18.1 µM
  TGI: 42.2 µM
A549/ATCC; Log10 Concentration −4.0
  Percent Growth: −51%
A549/ATCC; Log10 Concentration −5.0
  Percent Growth: 85%
A549/ATCC; Log10 Concentration −6.0
  Percent Growth: 94%
A549/ATCC; Log10 Concentration −7.0
  Percent Growth: 98%
A549/ATCC; Log10 Concentration −8.0
  Percent Growth: 95%
NCI-H23
  GI50: 11.3 µM
  TGI: 27.2 µM
NCI-H23; Log10 Concentration −4.0
  Percent Growth: −74%
NCI-H23; Log10 Concentration −5.0
  Percent Growth: 57%
NCI-H23; Log10 Concentration −6.0
  Percent Growth: 104%
NCI-H23; Log10 Concentration −7.0
  Percent Growth: 100%
NCI-H23; Log10 Concentration −8.0
  Percent Growth: 98%
NCI-H522
  GI50: 1.12 µM
  TGI: 2.86 µM
NCI-H522; Log10 Concentration −4.0
  Percent Growth: −65%
NCI-H522; Log10 Concentration −5.0
  Percent Growth: −67%
NCI-H522; Log10 Concentration −6.0
  Percent Growth: 56%
NCI-H522; Log10 Concentration −7.0
  Percent Growth: 105%
NCI-H522; Log10 Concentration −8.0
  Percent Growth: 99%
